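96-well plates; 48 h exposure; 5 concentrations. Endpoints by linear interpolation between flanking doses. Not reached: highest tested concentration assigned. GI50 marks 50% less growth.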 Calls of active or inactive are those of the source. Rule as the data show it: active = GI50 up to about 1.1 µM and inactive = higher. Where a SMILES comes first, the peptide text is derived from it. The star is where a group is joined. X33 = O=C(c1ccc(-c2ccc(Cl)cc2Cl)o1)*

Some test systems named below: UO-31; SK-MEL-2; U-251; RPMI-8226; M14; HCT-15; NCI-H460; OVCAR-5; SK-MEL-28; NCI-H23; PC-3; T47D; CCRF-CEM; SN12C; HOP-62; HCC 2998; MDA-MB-231; HCT-116; BT-549; HL-60.
Common to all, as to test: inhibition of tumour cell growth, NCI panel, 48 h

On to `CCC(C)C(NC(=O)CNC(=O)C(Cc1ccccc1)NC(=O)C1CCCN1C(=O)c1ccc(-c2ccc(Cl)cc2Cl)o1)C(=O)OC` (stereo not given) (X33-PFGI-OMe; configuration not given here), for which the GI50 in the experiment with UO-31 is 36.8 µM (inactive); with SK-MEL-2 it was 60.5 µM (inactive); in the experiment with U-251, 24.5 µM (inactive); with RPMI-8226, 14.7 µM (inactive); in the experiment with M14, 46.8 µM (inactive); with HCT-15, 43.1 µM. Moreover, the GI50 in the experiment on NCI-H460 was 15.7 µM (inactive); with OVCAR-5, 74.8 µM (inactive); in the experiment on SK-MEL-28, 27.3 µM (inactive); in the experiment on NCI-H23 it was 34.1 µM (inactive); in the experiment on PC-3, 8 µM (inactive); in the experiment on T47D, 25.3 µM (inactive). Also, the GI50 in the experiment with CCRF-CEM was 8.09 µM (inactive); in the experiment on SN12C, 19.8 µM (inactive); in the experiment on HOP-62 it was 31.1 µM (inactive); in the experiment with HCC 2998, 21.3 µM (inactive); in the experiment with MDA-MB-231 it was 24.7 µM (inactive); with HCT-116, 13.6 µM (inactive). Further, the GI50 in the experiment on BT-549 is 92.5 µM (inactive); in the experiment with HL-60, 3.47 µM (inactive).

With `O=C(NC1=C(Cl)C(=O)c2ccccc2C1=O)C(=O)c1c(O)c2ccccc2oc1=O`, the GI50 in the experiment on UO-31 was 7.66 µM (inactive); in the experiment with SK-MEL-2 it was 2.32 µM (inactive); with U-251, 5.74 µM (inactive); in the experiment on RPMI-8226 it was 6.19 µM (inactive); in the experiment with M14, 1.83 µM (inactive); in the experiment on HCT-15, 3.18 µM. In addition, the GI50 in the experiment with NCI-H460 was 2.54 µM (inactive); in the experiment on OVCAR-5, 11.5 µM (inactive); in the experiment on SK-MEL-28, 2.39 µM (inactive); in the experiment on NCI-H23, 1.53 µM (inactive); in the experiment on PC-3, 2.88 µM (inactive); in the experiment on T47D it was 4.83 µM (inactive). The GI50 is 5.94 µM (inactive) with CCRF-CEM; 3.7 µM (inactive) in the experiment on SN12C; 5.46 µM (inactive) in the experiment with HOP-62; 8.11 µM (inactive) in the experiment on HCC 2998; 3.48 µM (inactive) with MDA-MB-231; 2.56 µM (inactive) in the experiment with HCT-116. Also, the GI50 with BT-549 is 3.06 µM (inactive); with HL-60, 3.21 µM (inactive).

With `CN(C)c1ccc(C=C2C(=O)NC(=S)NC2=O)c2ccccc12`, the GI50 with UO-31 is 60.4 µM (inactive); in the experiment with SK-MEL-2 it was 62.8 µM (inactive); in the experiment with U-251, 34.3 µM (inactive); in the experiment with RPMI-8226 it was 39.4 µM (inactive); in the experiment with M14, > 100 µM (inactive); with HCT-15, 41.7 µM. The GI50 in the experiment with NCI-H460 was > 100 µM (inactive); in the experiment on OVCAR-5 it was > 100 µM (inactive); in the experiment with SK-MEL-28, 77.4 µM (inactive); with NCI-H23 it was 71.9 µM (inactive); in the experiment on PC-3, > 100 µM (inactive); with T47D, > 100 µM (inactive). Further, the GI50 in the experiment with CCRF-CEM was 38.6 µM (inactive); with SN12C it was 68.4 µM (inactive); with HOP-62 it was > 100 µM (inactive); in the experiment with HCC 2998, > 100 µM (inactive); in the experiment on MDA-MB-231, > 100 µM (inactive); with HCT-116 it was > 100 µM (inactive). The GI50 in the experiment with BT-549 is 61 µM (inactive); in the experiment on HL-60 it was 33.7 µM (inactive).

Consider `CC1=C(C(=O)OC(C)C)C(c2cccc([N+](=O)[O-])c2)C(C(=O)OC(CO[N+](=O)[O-])CO[N+](=O)[O-])=C(C)N1` (stereo not given), for which the GI50 is 3.44 µM (inactive) in the experiment on UO-31; 2.39 µM (inactive) in the experiment with SK-MEL-2; 2.24 µM (inactive) with U-251; 1.05 µM (active) in the experiment on RPMI-8226; 3.56 µM (inactive) in the experiment with M14; 2.86 µM in the experiment with HCT-15. In addition, the GI50 with NCI-H460 is 3.5 µM (inactive); in the experiment on OVCAR-5, 6.71 µM (inactive); with SK-MEL-28, 11.4 µM (inactive); in the experiment on NCI-H23, 5.37 µM (inactive); in the experiment with PC-3 it was 2.05 µM (inactive); in the experiment on T47D, 3.99 µM (inactive). Moreover, the GI50 in the experiment with CCRF-CEM was 1.92 µM (inactive); in the experiment on SN12C, 3.97 µM (inactive); with HOP-62 it was 3.85 µM (inactive); in the experiment with HCC 2998, 4.53 µM (inactive); in the experiment with MDA-MB-231, 3.59 µM (inactive); in the experiment on HCT-116, 2.66 µM (inactive). Besides, the GI50 was 2.67 µM (inactive) in the experiment with BT-549 and 2 µM (inactive) in the experiment on HL-60.

`Cc1nc2c(o1)C(=O)c1ccccc1/C2=N\c1ccccc1`: the GI50 is 2.98 µM (inactive) with UO-31; 1.46 µM (inactive) in the experiment with SK-MEL-2; 1.76 µM (inactive) in the experiment with U-251; 1.97 µM (inactive) in the experiment with RPMI-8226; 0.841 µM (active) with M14; 2.25 µM in the experiment on HCT-15. The GI50 is 5.66 µM (inactive) in the experiment on NCI-H460; 5.85 µM (inactive) in the experiment on OVCAR-5; 2 µM (inactive) in the experiment with SK-MEL-28; 1.38 µM (inactive) with NCI-H23; 2.03 µM (inactive) with PC-3; 2.52 µM (inactive) in the experiment on T47D. For the same compound, the GI50 with CCRF-CEM is 4.04 µM (inactive); in the experiment with SN12C, 2.04 µM (inactive); in the experiment on HOP-62, 2.45 µM (inactive); with HCC 2998, 15.2 µM (inactive); in the experiment with MDA-MB-231, 0.968 µM (active); in the experiment on HCT-116, 2.17 µM (inactive). For the same compound, the figures for the GI50 in the experiment on BT-549 and in the experiment with HL-60 were 1.68 µM (inactive) and 2.42 µM (inactive), respectively.

Regarding `COC(=O)CCCC(=O)/C(=N\Nc1ccc(Cl)cc1)Nc1c(Cl)cccc1Cl`, the GI50 is 34.4 µM (inactive) in the experiment with UO-31; 24.6 µM (inactive) in the experiment on SK-MEL-2; 55.5 µM (inactive) with U-251; 21.8 µM (inactive) with RPMI-8226; > 92.5 µM (inactive) with M14; 72.3 µM in the experiment on HCT-15. Moreover, the GI50 with NCI-H460 was 26.7 µM (inactive); in the experiment with OVCAR-5, > 100 µM (inactive); with SK-MEL-28 it was > 89.3 µM (inactive); with NCI-H23, 48.2 µM (inactive); in the experiment with PC-3, 24 µM (inactive); in the experiment with T47D, > 46.5 µM (inactive). Moreover, the GI50 with CCRF-CEM was 26.2 µM (inactive); in the experiment on SN12C, > 100 µM (inactive); in the experiment on HOP-62 it was > 67.6 µM (inactive); in the experiment with HCC 2998, 58.7 µM (inactive); with MDA-MB-231 it was > 82.8 µM (inactive); in the experiment with HCT-116, 38.9 µM (inactive). Also, the GI50 in the experiment with BT-549 is > 100 µM (inactive); in the experiment on HL-60, 7.06 µM (inactive).

In the case of `COc1ccc(/C=C/C(=O)N[C@@H]2C(=O)N3[C@@H]2SC(C)(C)[C@@H]3C(=O)O)cc1`, the GI50 in the experiment with UO-31 was > 100 µM (inactive); in the experiment with SK-MEL-2, > 100 µM (inactive); in the experiment on U-251 it was > 100 µM (inactive); in the experiment with RPMI-8226, > 100 µM (inactive); in the experiment with M14, > 100 µM (inactive); in the experiment on HCT-15, > 100 µM. Further, the GI50 in the experiment with NCI-H460, in the experiment on OVCAR-5, in the experiment on SK-MEL-28, with NCI-H23, with PC-3 and in the experiment on T47D was > 100 µM (inactive) throughout. In addition, the GI50 in the experiment on CCRF-CEM, in the experiment with SN12C, in the experiment on HOP-62, with HCC 2998, with MDA-MB-231 and in the experiment with HCT-116 was > 100 µM (inactive) throughout. Also, the GI50 in the experiment with BT-549 and in the experiment on HL-60 was > 100 µM (inactive) throughout.

As for `CCC1CCC2c3c([nH]c4ccc(C)cc34)C3C(=O)N(N(C)C)C(=O)C3C2C1` (stereo not given), the GI50 in the experiment on UO-31 is > 75 µM (inactive); in the experiment on SK-MEL-2, 24.6 µM (inactive); with U-251, 19.5 µM (inactive); with RPMI-8226 it was 19 µM (inactive); in the experiment with M14, 14.5 µM (inactive); in the experiment with HCT-15, 5.78 µM. For the same compound, the GI50 is 7.45 µM (inactive) in the experiment on NCI-H460; > 86.5 µM (inactive) with OVCAR-5; > 83.4 µM (inactive) in the experiment with SK-MEL-28; > 67.3 µM (inactive) with NCI-H23; 6.22 µM (inactive) with PC-3; 7.93 µM (inactive) with T47D. Also, the GI50 in the experiment with CCRF-CEM was 12.7 µM (inactive); in the experiment with SN12C it was 17.9 µM (inactive); with HOP-62 it was > 27 µM (inactive); with HCC 2998, 35.2 µM (inactive); in the experiment with MDA-MB-231 it was 72.8 µM (inactive); with HCT-116, 7.36 µM (inactive). Moreover, the GI50 in the experiment on BT-549 was 39.1 µM (inactive); in the experiment with HL-60, 3.05 µM (inactive).

For `CN(C)CCCN1c2ccccc2CCc2ccc([N+](=O)[O-])cc21`, the GI50 is 16 µM (inactive) in the experiment with UO-31; 20.3 µM (inactive) in the experiment with SK-MEL-2; 29.3 µM (inactive) with U-251; 34.5 µM (inactive) in the experiment on RPMI-8226; 15.4 µM (inactive) in the experiment with M14; 26.9 µM in the experiment on HCT-15. Moreover, the GI50 in the experiment on NCI-H460 was 19.5 µM (inactive); with OVCAR-5 it was 27.9 µM (inactive); in the experiment with SK-MEL-28, 25.5 µM (inactive); in the experiment with NCI-H23, 27.2 µM (inactive); with PC-3, 34.8 µM (inactive); with T47D it was 16.5 µM (inactive). Besides, the GI50 in the experiment on CCRF-CEM is 39.2 µM (inactive); with SN12C it was 22.8 µM (inactive); with HOP-62, 25.7 µM (inactive); with HCC 2998, 13.9 µM (inactive); with MDA-MB-231 it was 39.2 µM (inactive); with HCT-116 it was 26.9 µM (inactive). The GI50 was 27.9 µM (inactive) with BT-549 and 19.8 µM (inactive) in the experiment on HL-60.

Turning to `CCOC(=O)C1(Cc2ccc(C)cc2)Cc2ccc(C)cc2C1=O` (stereo not given), the GI50 is 38.5 µM (inactive) in the experiment with UO-31; 14.6 µM (inactive) with SK-MEL-2; 10 µM (inactive) in the experiment with U-251; 12.2 µM (inactive) in the experiment on RPMI-8226; 9.59 µM (inactive) in the experiment with M14; 7.85 µM in the experiment with HCT-15. In addition, the GI50 was 27.9 µM (inactive) in the experiment on NCI-H460; 52.5 µM (inactive) in the experiment with OVCAR-5; 20.2 µM (inactive) in the experiment with SK-MEL-28; 18.5 µM (inactive) in the experiment on NCI-H23; 26 µM (inactive) in the experiment with PC-3; 12.4 µM (inactive) with T47D. For the same compound, the GI50 is 8.05 µM (inactive) in the experiment on CCRF-CEM; 14.9 µM (inactive) with SN12C; 21.1 µM (inactive) in the experiment on HOP-62; 16.8 µM (inactive) in the experiment with HCC 2998; 16.5 µM (inactive) in the experiment on MDA-MB-231; 6.73 µM (inactive) in the experiment with HCT-116. The GI50 is 10 µM (inactive) in the experiment with BT-549 and 2.55 µM (inactive) in the experiment on HL-60.

(Values after ChEMBL document CHEMBL1201862, “PubChem BioAssay data set” (2004).)
